Experiment: Preliminary solubility studies, ethanol versus water
Assay type: physicochemical

## O=C1NC(=O)C(c2ccccc2)(c2ccccc2)N1 [sodium phenytoin]
  solubility in ethanol compared with water: less soluble in ethanol than it is in water

Source: US6245917A, “Crystalline sodium phenytoin monohydrate” (Warner-Lambert Company, priority 1999, dated 2001)
